# “And” between values parts separate entries of the source, which are not always exact repeats. Equal values may be shown once. Toxic doses and inconclusive results are not listed.
# Tested on: CD2F1 mice, L1210 leukemia ip, survival T/C
# Test: NCI In Vivo Anticancer Drug Screen. Data for tumor model L1210 Leukemia (intraperitoneal) in CD2F1 (CDF1) mice
# Conditions: higher = longer survival
# How it was run: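 Ratio T/C, where T is the treated-group value and C the vehicle-dosed control value, from mice implanted with a transplantable tumor.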
# [1] = endpoint: mean survival time, dose: 100.0 mg/kg/injection, schedule: Q01DX009 (ip), vehicle: saline with Tween-80
# [2] = endpoint: mean survival time, dose: 100.0 mg/kg/injection, schedule: Q04DX003 (ip), vehicle: saline with Tween-80
# [3] = endpoint: mean survival time, dose: 200.0 mg/kg/injection, schedule: Q01DX009 (ip), vehicle: saline with Tween-80
# [4] = endpoint: mean survival time, dose: 200.0 mg/kg/injection, schedule: Q04DX003 (ip), vehicle: saline with Tween-80
# [5] = endpoint: mean survival time, dose: 400.0 mg/kg/injection, schedule: Q04DX003 (ip), vehicle: saline with Tween-80
# [6] = endpoint: median survival time, dose: 50.0 mg/kg/injection, schedule: Q04DX003 (ip), vehicle: saline
# [7] = endpoint: median survival time, dose: 100.0 mg/kg/injection, schedule: Q04DX003 (ip), vehicle: saline
# [8] = endpoint: median survival time, dose: 200.0 mg/kg/injection, schedule: Q04DX003 (ip), vehicle: saline
smiles,measurement,setting,value
CC(=O)C1=C(C)NC(C)=C(C(C)=O)C1C,T/C,[1],100 % of control
same,T/C,[2],93 % of control
same,T/C,[3],95 % of control
same,T/C,[4],97 % of control
same,T/C,[5],92 % of control
Nc1ccc2ccccc2c1S(=O)(=O)O,T/C,[1],102 % of control
same,T/C,[3],93 % of control
same,T/C,"endpoint: mean survival time, dose: 400.0 mg/kg/injection, schedule: Q01DX009 (ip), vehicle: saline with Tween-80",90 % of control
O=C(O)c1ccc([N+](=O)[O-])cc1C(=O)O.[NH-]C1CCCCC1[NH-].[Pt+2],T/C,"endpoint: median survival time, dose: 3.12 mg/kg/injection, schedule: Q04DX003 (ip), vehicle: saline",100 % of control and 110 % of control
same,T/C,"endpoint: median survival time, dose: 6.25 mg/kg/injection, schedule: Q04DX003 (ip), vehicle: saline",121 % of control and 110 % of control
same,T/C,"endpoint: median survival time, dose: 12.5 mg/kg/injection, schedule: Q04DX003 (ip), vehicle: saline",116 % of control
same,T/C,[6],176 % of control
same,T/C,[7],183 % of control and 282 % of control
same,T/C,[8],97 % of control
Cc1ccc(NC(=O)OCCSCCOC(=O)Nc2ccc(C)cc2)cc1,T/C,"endpoint: mean survival time, dose: 100.0 mg/kg/injection, schedule: Q04DX003 (ip), vehicle: other",93 % of control
same,T/C,"endpoint: mean survival time, dose: 200.0 mg/kg/injection, schedule: Q04DX003 (ip), vehicle: other",96 % of control
same,T/C,"endpoint: mean survival time, dose: 400.0 mg/kg/injection, schedule: Q04DX003 (ip), vehicle: other",93 % of control
[Cl][Pt+2][Cl].[NH-]C1C(O)OC(CO)C(O)C1O.[NH-]C1C(O)OC(CO)C(O)C1O (stereo not given),T/C,"endpoint: median survival time, dose: 2.5 mg/kg/injection, schedule: Q04DX003 (ip), vehicle: saline",105 % of control
same,T/C,"endpoint: median survival time, dose: 5.0 mg/kg/injection, schedule: Q04DX003 (ip), vehicle: saline",110 % of control
same,T/C,"endpoint: median survival time, dose: 10.0 mg/kg/injection, schedule: Q04DX003 (ip), vehicle: saline",93 % of control
same,T/C,"endpoint: median survival time, dose: 20.0 mg/kg/injection, schedule: Q04DX003 (ip), vehicle: saline",100 % of control
same,T/C,"endpoint: median survival time, dose: 25.0 mg/kg/injection, schedule: Q04DX003 (ip), vehicle: saline",103 % of control
same,T/C,[6],105 % of control
same,T/C,[7],103 % of control
same,T/C,[8],101 % of control
O=C(Nc1ccc(C2=NCCCN2)cc1)c1ccc(NC(=O)c2ccc(C3=NCCCN3)cc2)cc1,T/C,"endpoint: mean survival time, dose: 1.0 mg/kg/injection, schedule: Q01DX008 (iv), vehicle: other",95 % of control
same,T/C,"endpoint: mean survival time, dose: 2.0 mg/kg/injection, schedule: Q01DX008 (iv), vehicle: other",107 % of control
same,T/C,"endpoint: mean survival time, dose: 4.0 mg/kg/injection, schedule: Q01DX008 (iv), vehicle: other",189 % of control
Fc1ccc(NC(=S)S)cc1,T/C,"endpoint: mean survival time, dose: 6.25 mg/kg/injection, schedule: Q01DX009 (ip), vehicle: saline",86 % of control
same,T/C,"endpoint: mean survival time, dose: 12.5 mg/kg/injection, schedule: Q01DX009 (ip), vehicle: saline",114 % of control
same,T/C,"endpoint: mean survival time, dose: 25.0 mg/kg/injection, schedule: Q01DX009 (ip), vehicle: saline",93 % of control
Cn1c(=O)cc(O)c2ccccc21,T/C,[2],101 % of control
same,T/C,[4],97 % of control
same,T/C,[5],97 % of control
O=C(C[n+]1ccc2ccccc2c1)c1ccc2ccccc2c1,T/C,"endpoint: mean survival time, dose: 12.5 mg/kg/injection, schedule: Q04DX003 (ip), vehicle: saline with Tween-80",92 % of control
same,T/C,"endpoint: mean survival time, dose: 25.0 mg/kg/injection, schedule: Q04DX003 (ip), vehicle: saline with Tween-80",86 % of control
CCCCCC(=O)SCC(=O)OCC(=O)[C@]1(O)Cc2c(O)c3c(c(O)c2[C@@H](OC2CC(N)C(O)C(C)O2)C1)C(=O)c1c(OC)cccc1C3=O (stereo not given in full),T/C,"endpoint: mean survival time, dose: 0.39 mg/kg/injection, schedule: Q01DX005 (ip), vehicle: water",115 % of control and 110 % of control
same,T/C,"endpoint: mean survival time, dose: 0.78 mg/kg/injection, schedule: Q01DX005 (ip), vehicle: water",116 % of control and 124 % of control
same,T/C,"endpoint: mean survival time, dose: 1.56 mg/kg/injection, schedule: Q01DX005 (ip), vehicle: water",118 % of control
same,T/C,"endpoint: mean survival time, dose: 6.25 mg/kg/injection, schedule: Q01DX005 (ip), vehicle: water",104 % of control
C=C(Br)CSC#N,T/C,[2],96 % of control
same,T/C,[4],112 % of control
same,T/C,[5],96 % of control
COC(=O)c1cccc2c1ccc1ccccc12,T/C,"endpoint: mean survival time, dose: 75.0 mg/kg/injection, schedule: Q01DX001 (ip), vehicle: saline",91 % of control
same,T/C,"endpoint: mean survival time, dose: 150.0 mg/kg/injection, schedule: Q01DX001 (ip), vehicle: saline",95 % of control
